We go through 8 molecules from PMC5529018, “Discovery of novel brain permeable and G protein-biased beta-1 adrenergic receptor partial agonists for the treatment of neurocognitive disorders” (PLoS ONE, 2017).

Molecules are shown by their SMILES.

The target of data set [1] is T1, ADRB1 (Homo sapiens, UniProt P08588). In words: cAMP assay (HTRF), ADRB1. The data set is classed as cell-based. Details: expressed in transfected cells; host or cells: HEK-293. To be noted: for cAMP pathway ADRB1 EC50 / EC50: HEK-293 cells, geometric mean (95% confidence limits) of at least two experiments; for ADRB1 agonist activity (cAMP pathway), in words: compared to xamoterol (S); for Emax: 0.5 h, percent efficacy vs maximum response of isoproterenol, read-out: cAMP pathway ADRB1 % Iso max; for EC50: read-out: cAMP pathway ADRB1 EC50. The procedure: Pharmacological effects of compounds at the cAMP pathway mediated by ADRB1 were evaluated by measuring cAMP production using the homogenous time-resolved fluorescence detection method with HEK-293 cells stably expressing human recombinant ADRB1. Briefly, cells were suspended in HBSS buffer completed with 20 mM HEPES (pH 7.4) and 500 μM IBMX (3-isobutyl-1-methylxanthine) and distributed at a density of 3x10^3 cells/well. […] Following incubation, the cells were lysed and the fluorescence acceptor (D2-labeled cAMP) and fluorescence donor (anti-cAMP antibody labeled with europium cryptate) were added. […] The results were expressed as a percent of the maximum efficacy achieved with isoproterenol. Pharmacological effects of compounds at the cAMP pathway mediated by ADRB2 and ADRB3 were measured as described above using CHO cells stably expressing human recombinant ADRB2 and human SK-N-MC neurotumor cells endogenously expressing ADRB3, respectively.

For data set [2] the following is noted: cited from earlier work.
Data set [3] concerns LPS-induced TNFα response. In words: In vivo LPS assay. Further details: species or system C57Bl/6J mice. To be noted: 90 min post-LPS. The protocol:
; subcutaneous; […]; intraperitoneal; n = 4) or vehicle (5% DMSO/20%PEG400/water; intraperitoneal; n = 12) 15 min prior to LPS (50 ug/kg; intraperitoneal). A control group was injected with vehicle 15 minutes prior to saline (n = 18). Following injections, mice were single-housed. At 90 min post-LPS/saline, mice were deeply anesthetized with isoflurane and blood was collected from the right ventricle via cardiac puncture (23 g needle) into lithium heparin-containing vials (BD microtainer plasma tubes). Subsequently, brains were collected after perfusion with phosphate-buffered saline. Plasma was separated by centrifugation (11,000 rpm for 3 minutes) within 60 min of collection and stored at -80°C until analysis. The concentration of TNFα in the collected plasma was measured by ELISA (Invitrogen, KMC3012) according to the manufacturer’s instruction. The LPS-induced inflammatory response in the CNS was assessed by measuring mRNA expression for genes related to neuroimmune activation in brain tissue according to the previously reported method. Briefly, total RNA was extracted from hippocampus containing coronal sections using the RNeasy Lipid Tissue Mini Kit (Qiagen), and transcribed into cDNA (Superscript III, Invitrogen). PCR was performed in duplicate using TaqMan gene expression assays, TNFα (Mm00443258_m1), IL1b (Mm00434228_m1), IL6 (Mm00446190_m1), and glyceraldehyde-3-phosphate dehydrogenase (GAPDH; Mm99999915_g1). Fold changes of expression relative to control were determined after normalization to GAPDH. Relative quantification and fold change were calculated by the comparative CT method. Brain uptake of STD-101-D1 was determined in brain tissue. […]

The nature of data set [4]: Pharmacokinetic study 2, 20-min post-dose collection. The data set is classed as in vivo, Sprague-Dawley rats. Particulars: rat, 10 mg/kg, 20 min post-dose. An excerpt: Two cohorts of Sprague-Dawley rats were used in two independent studies. All animals were fasted overnight before the experiment with free access to water. In study 1, a total of 18 rats were used for a 4 hr time course pharmacokinetic (PK) study. Rats were anesthetized with 3% isoflurane and catheters were implanted into the jugular and/or portal veins for compound administration and/or blood sampling at 1 to 2 days prior to the experiments as previously described. […] Four hours post-dose, rats were deeply anesthetized with isoflurane and blood samples were collected by cardiac puncture. In study 2, a total of 18 rats were used for a 20 min post-dose collection study. […] At 20 min post-dose, rats were deeply anesthetized with isoflurane and blood samples were collected by cardiac puncture. Brains were collected after perfusion with phosphate buffered saline. All plasma samples were immediately separated after collection by centrifugation (11,000 rpm for 3 minutes) and stored at −80°C until analysis. […] Tulobuterol was used as the internal standard. The flow rate was set to 0.45 ml/min. Column temperature was 25°C. […] The injection volume was 20 μl. The mass spectrometer was operated in the positive mode with multiple-reaction monitoring (MRM). […] Mobile phase A consisted of 10 mM ammonium acetate and 0.1% formic acid in LCMS grade water. Mobile phase B consisted of 10 mM ammonium acetate and 0.1% formic acid in LCMS grade acetonitrile:water 90:10% (v/v). […] Five μl of the extracted samples were injected. […] Data acquisition and analysis were performed using the Analyst 1.6.1 software (AB SCIEX, CA).

A short description of data set [5]: Cardiovascular studies (heart rate, blood pressure). The class given is in vivo, Sprague-Dawley rats. To be noted: anesthetized rats, 3 mg/kg subcutaneous. The procedure: A polyethylene catheter (PE50) filled with heparinized saline was then inserted into the tail artery and connected to the blood pressure transducer system. After ensuring the absence of any air bubbles, 5–10 min of baseline systolic and diastolic blood pressure along with heart rate measurements were recorded using LabChart Pro (AD Instruments, CO).

Data set [6] deals with T1, ADRB1. As to the kind of experiment: β-arrestin assay (PathHunter enzyme fragment complementation). The class given is cell-based. Details: host or cells: CHO-K1 (PathHunter). The protocol: Pharmacological activity of compounds in the β-arrestin pathway mediated by ADRB1 were evaluated using an enzyme fragment complementation method with a β‐galactosidase functional reporter. An engineered CHO-K1-ADRB1 PathHunter cell line (DiscoveRx) was used in the assay. In this cell line, the enzyme acceptor (β‐galactosidase fragment) is fused to β-arrestin and the enzyme donor (β‐galactosidase fragment) is fused to the ADRB1. Thus, activation of the ADRB1 stimulates binding of β-arrestin to the ProLink-tagged ADRB1 and forces complementation of the two enzyme fragments, resulting in the formation of an active β‐galactosidase enzyme. Briefly, CHO-K1-ADRB1 PathHunter cell lines were plated in a total volume of 20 μL cell plating reagent (DiscoveRx, 93-0563R0A) at a density of 2,500 cells/well into 384 well microplates and incubated overnight at 37°C in 5% CO2. […] Chemiluminescent signal was then read with a PerkinElmer Envision (Perkin Elmer, Inc., MA) instrument. The results were expressed as a percent of the maximum efficacy achieved with isoproterenol.

Data set [7] concerns LPS-induced TNFα production in primary microglia. As to the kind of experiment: In vitro primary microglia TNFα assay. The data set is classed as cell-based, Sprague Dawley rat. To be noted: Rattus norvegicus, 4 h, read-out: inhibition of LPS-induced TNFα production. An excerpt:
Mixed glial cells were obtained from the cerebral cortex of Sprague Dawley rat pups at postnatal days 1–3. Briefly, neonates were euthanized by decapitation and their brain tissues were collected for cortex isolation. The isolated cortex was then trypsinized, triturated, and placed into tissue culture flasks in DMEM supplemented with 10% fetal bovine serum and 1% Penicillin/Streptomycin. After 10 days in vitro, microglia were harvested by gentle shaking of the growth flask, plated in a 96 well plate at a density of 30,000 cells/well, and incubated at 37°C overnight.

Data set [8] has as its target panel of CNS relevant targets, including G protein-coupled receptors and transporters. As to the kind of experiment: Off-target binding screen, panel of CNS relevant targets. Particulars: broad range of neurotransmitter transporters, ion channels and other CNS proteins; read-out: off-target affinity Ki.

T1 sequence (P08588 whole entry): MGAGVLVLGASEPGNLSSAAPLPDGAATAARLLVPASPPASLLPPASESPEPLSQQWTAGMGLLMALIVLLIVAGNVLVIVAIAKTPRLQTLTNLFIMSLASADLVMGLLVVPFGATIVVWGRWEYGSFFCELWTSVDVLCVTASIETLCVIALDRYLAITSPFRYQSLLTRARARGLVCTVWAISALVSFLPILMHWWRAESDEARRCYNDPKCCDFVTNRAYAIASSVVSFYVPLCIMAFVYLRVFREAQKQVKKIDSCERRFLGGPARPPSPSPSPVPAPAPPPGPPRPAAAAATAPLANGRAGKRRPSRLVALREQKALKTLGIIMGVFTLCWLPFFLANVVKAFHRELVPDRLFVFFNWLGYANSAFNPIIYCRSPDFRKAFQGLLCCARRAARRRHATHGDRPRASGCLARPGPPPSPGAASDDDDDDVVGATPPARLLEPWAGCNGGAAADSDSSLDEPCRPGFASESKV

On to `O=C(NCCNC[C@H](O)COc1cccc2c(O)cccc12)N1CCOCC1` [STD-101-E, (S)-N-(2-((2-hydroxy-3-((5-hydroxynaphthalen-1-yl)oxy)propyl)amino)ethyl)morpholine-4-carboxamide], for which, at ADRB1 [1], the “cAMP pathway ADRB1 EC50” value was “no response” and the “ADRB1 agonist activity (cAMP pathway), in words” value is “inactive”.
In the same order, the values of `N#Cc1cc(OC[C@@H](O)CNCCNC(=O)N2CCOCC2)c(F)cc1O` [STD-101-B8, (S)-N-(2-((3-(5-cyano-2-fluoro-4-hydroxyphenoxy)-2-hydroxypropyl)amino)ethyl)morpholine-4-carboxamide] are “no response” and “abolished the agonist activity completely”.
The corresponding values for `O=C(NCCNC[C@H](O)COc1cc(Cl)c(O)cc1F)N1CCOCC1` [STD-101-B4, (S)-N-(2-((3-(5-chloro-2-fluoro-4-hydroxyphenoxy)-2-hydroxypropyl)amino)ethyl)morpholine-4-carboxamide] are “no response” and “abolished the agonist activity completely”.
With `O=C(NCCNCC(O)COc1ccc(O)cc1)N1CCOCC1` (stereo not shown) [Xamoterol, reference compound], the “oral bioavailability in humans” value in data set [2] is recorded as 5%. Also, the “CNS inflammatory markers after LPS” value in data set [3] (3 mg/kg subcutaneous pre-treatment) is listed as “Significant effects of xamoterol were not observed”. For the same molecule, in data set [4], the “plasma concentration after PO as percent of that after IP” value worked out at 0.2% and the “plasma concentration after PO as percent of that after IV” value came to 0.7%. Further, in data set [5], the “decrease in blood pressure” value came out at 9% and the “increase in heart rate” value came out at 4%.
For `COc1ccc(CCNCC(O)COc2ccc(O)c(O)c2)cc1OC` (stereo not shown) [RO363, reference compound], the half-maximal effective concentration (EC50) at ADRB1 [6] (CHO-K1-ADRB1 PathHunter cells, read-out: β-arrestin pathway ADRB1 EC50) was found to be 32.2 nM. For the same molecule, on ADRB1 [6] (percent efficacy vs maximum response of isoproterenol), the “β-arrestin pathway ADRB1 % Iso max” value turned out to be 36.5%. At ADRB1 [1], the “decrease in potency vs xamoterol (S), cAMP ADRB1” value was “approximately 3 fold”; the “increase in efficacy vs xamoterol (S), cAMP ADRB1” value is “approximately 2 fold”; the Emax was 104 ± 23.9%; the EC50 was 7.9 nM.
As for `CC(C)NCC(O)c1ccc(O)c(O)c1` (stereo not shown) [isoproterenol], the inhibition at 10 µM in data set [7] is about 80%.
As to `O=C(NCCNC[C@H](O)COc1ccc(O)cc1)N1CCOCC1` [Xamoterol (S)], the inhibition at 10 µM in data set [7] was about 55%. For the same molecule, the inhibition constant (Ki) in data set [8] is over 10000 nM. In addition, in data set [3] (3 mg/kg pre-treatment 15 min prior to LPS), the “LPS-induced systemic (plasma) TNFα response” value is “markedly inhibited”.
Turning to `N#Cc1cc(OC[C@@H](O)CNCCNC(=O)N2CCOCC2)ccc1O` [STD-101-B6, (S)-N-(2-((3-(3-cyano-4-hydroxyphenoxy)-2-hydroxypropyl)amino)ethyl)morpholine-4-carboxamide], on ADRB1 [1], the Emax came to 25.1 ± 4.7%; the 50% effective concentration (EC50) worked out at 7.1 nM; the “ADRB1 agonist activity (cAMP pathway), in words” value was “decrease in both potency and efficacy”.
